Experimental data published in patent US3984470A, “Amidoxime derivatives and process for preparing the same” (priority 1974, dated 1976).

Assays:
reserpine-induced ptosis = assay: Reserpine-induced ptosis in the rat; format: in vivo, male rats of the CF1 strain; details: reserpine 5 mg/kg i.p., score scale 0-4, mean to 6th hour vs controls
Experimental: (§1) The thymoanaleptic properties of the compounds of the invention were determined by means of reserpine-induced ptosis and hypothermia in the rat.
An intraperitoneal dose of 5 mg/kg of reserpine was administered to batches of 5 male rats of the CF1 strain weighing an average of 300 g.
Thirty minutes later a dose of the compound to be studied was given by oral route and the inhibitory effect of the reserpine was noted every hour up to the sixth hour. Ptosis was evaluated for each eye in accordance with the following scale:
4 : eyelids completely closed.
The difference between these two averages represents the average decrease of the ptosis in the treated animals as compared to the controls.

[1] = tested on: aggressivity of killer rats; assay: Aggressivity of killer rats; format: in vivo, male rats; details: for inhibition in vivo at 25 mg/kg: 25 mg/kg i.p.; for antiaggressive properties: conclusion from Table V; for inhibition in vivo at 20 mg/kg: 20 mg/kg i.p.
Excerpt: If, under certain conditions, male rats are kept alone in individual cages for several weeks, the become spontaneously aggressive towards any mouse, which they kill as soon as it is placed in the same cage. Mice were introduced one after another into cages containing an isolated rat and a selection was made of the rats which immediately killed three mice. In this way batches of 6 to 8 rats were constituted. The rats were then given the compound to be studied by intraperitoneal route in such a way that each batch received a higher dose than the preceding batch. […] Table V which follows contains the results obtained 30 minutes after administration of the compound to be studied.

toxicity of yohimbine = assay: Potentiation of the toxicity of yohimbine (test of QUINTON); format: in vivo, male mice; details: yohimbine hydrochloride 25 mg/kg i.p.; for mortality at 50 mg/kg: Mus musculus, 50 mg/kg oral, mortality after 24 hours
Experimental: Yohimbine is a substance which provokes an increase in the serotonine level in the brain or a decrease in norepinephrine according to the author.
For this purpose, the test of QUINTON was used which is described in Brit. J. Pharmacol. 21, 51 (1963). […] […] The percentage of mortality was noted after 24 hours.
Table III hereunder expresses the percentage of potentiation of the toxicity due to yohimbine in comparison with the controls.
The percentage in question was determined 24 hours after the administration of yohimbine.

[2] = tested on: stereotypies induced by amphetamine; assay: Potentiation of the stereotypies induced by amphetamine; format: in vivo, rats
Experimental: It is commonly admitted that amphetamine induces stereotypies by stimulating the dopaminergic receptors and inhibiting the re-uptake of dopamine into the neuron.
The thymoanaleptics potentiate these stereotypies.
Thirty minutes later, a dose of 10 mg/kg of the compound to be tested was given by oral route. Note was taken of the intensity of the stereotypies every 30 minutes for 150 minutes in accordance with the following scale which indicates the behaviour of the animal.
0 : the rat is motionless and asleep
1 : the rat is motionless and awake
3 : the rat stands on its hind paws and sniffs the lid of its cage in a stereotyped manner.
4 : the rat licks the walls of its cage in a stereotyped manner
5 : the rat bites the bars of its cage or sniffs the shavings of its litter in a stereotyped manner
6 : the rat chews the shavings in a stereotyped manner
The average of the 5 results obtained for each batch was calculated and compared with the average obtained with the control animals.
The difference between these averages represents the mean increase of the steroetypies of the treated animals in comparison with the controls.

[3] = tested on: reserpine-induced hypothermia; assay: Reserpine-induced hypothermia in the rat; format: in vivo, male rats CF1; details: reserpine 5 mg/kg i.p., mean to 6th hour vs controls
Experimental: as §1
An intraperitoneal dose of 5 mg/kg of reserpine was administered to batches of 5 male rats CF1 weighing an average of 300 g. Thirty minutes later, the rectal temperature was determined and then a dose of the compound to be tested was given by oral route, except to the control animals. The rectal temperature of all the animals including the controls was taken every hour up to the 6th hour.
The difference between these two averages enabled an estimation to be made regarding the antagonistic effect of the compounds of the invention on the hypothermia induced by reserpine.

spontaneous motricity = assay: Spontaneous motricity in the mouse; format: in vivo; details: 50 mg/kg intragastric, mouse
Experimental: Tests were also performed with a view to determining whether the compounds of the invention modify spontaneous motricity.

[4] = tested on: cholinergic effects provoked by tremorine; assay: Cholinolytic properties: action with respect to tremorine; format: in vivo, male mice of the OF1 strain; details: tremorine 10 mg/kg, difference vs controls
Experimental: When injected into mice, tremorine and its metabolite, oxotremorine, produce central cholinergic effects, i.e. normal and provoked tremor as well as peripheral cholinergic effects i.e. weeping, sweating diarrhoea and salivation.
Male mice of the OF1 strain weighing 22 g, were divided into batches of 10. Each batch with the exception of the control animals, received, by oral route, a dose of the compound to be tested.
Thirty minutes later, 10 mg/kg of tremorine were administered to all the batches and thirty minutes after the injection of tremorine note was taken of the cholinergic effects on each animal in accordance with the following scale: […]

[5] = Toxicity, method of KARBER and BEHRENS, mice; details: mouse, in vivo, ip; intraperitoneal, mice, after 48 hours
Experimental: Finally, tests of toxicity were performed with compounds of the invention following the method of KARBER and BEHRENS.

[6] = Rattus norvegicus, ip, 0.5 h, 30 minutes after administration
[7] = 10 mg/kg oral, amphetamine 10 mg/kg i.p., every 30 min for 150 min
[8] = 20 mg/kg, same conditions (amphetamine 10 mg/kg i.p.)

Structure (SMILES) | Average decrease of Ptosis (reserpine-induced ptosis; 10 mg/kg oral) | inhibition in vivo at 25 mg/kg [1, 6] [%] | mortality at 50 mg/kg (toxicity of yohimbine) [%] | Average increase of the stereotypies [2, 7] | Average inhibition of hypothermia (positive °C) ([3]; 10 mg/kg oral) [°C] | also measured
NC(CCOc1cccc2ccccc12)=NO [Compound 6, 3-(1-Naphthyloxy)-propionamidoxime] | 1.5 | 30 | 30 |  |  | 
CC(Oc1c(C(C)C)oc2ccccc12)C(N)=NO (stereo not shown) [Compound 24, 2-(2-Isopropyl-3-benzofuryloxy)-propionamidoxime] | 0.2 |  | 30 | 3.8 | 0.8 | 
CCC(Oc1cccc2c1OCCO2)C(N)=NO (stereo not shown) [Compound 14, 2-[(1,4-Benzodioxanyl)-5-oxy]-butyramidoxime] | 0.6 | 80 |  | 4.2 | 0.4 | 
CC(Oc1cccc2c1OCC2)C(N)=NO (stereo not shown) [Compound 9, 2-(2,3-Dihydro-7-benzofuryloxy)-propionamidoxime] | 1.3 |  | 10 | 6.2 | 0.5 | influence on spontaneous motricity (spontaneous motricity): no influence on the spontaneous motricity
CCC(Oc1cccc2ccccc12)C(N)=NO (stereo not shown) [Compound 34] |  |  | 10 |  | 1.1 | inhibition in vivo at 1 mg/kg ([1]; Rattus norvegicus, ip, 0.5 h, 1 mg/kg i.p., 30 minutes after administration): 100%; antiaggressive properties [1]: powerful antiaggressive properties
CC(C)c1oc2ccccc2c1OCC(N)=NO [Compound 36, 2-(2-Isopropyl-3-benzofuryloxy)-acetamidoxime] |  |  |  | 1.8 | 0.7 | 
Cc1cc2cc(OCC(N)=NO)ccc2o1 [Compound 33, 2-(2-Methyl-5-benzofuryloxy)-acetamidoxime] |  |  |  |  |  | Average increase of the stereotypies [2, 8]: 4; Average decrease of Ptosis (reserpine-induced ptosis; 100 mg/kg oral): 2.0; inhibition in vivo at 20 mg/kg [1, 6]: 60%
CCc1oc2ccccc2c1OC(C)C(N)=NO (stereo not shown) [Compound 17, 2-(2-Ethyl-3-benzofuryloxy)-propionamidoxime] | 0.4 |  | 20 | 1.2 |  | Central response tremor: Normal ([4]; 25 mg/kg oral): -0.8; Central response tremor: Provoked ([4]; 25 mg/kg oral): 0; Peripheral cholinergic response: Salivat. ([4]; 25 mg/kg oral): 0; Peripheral cholinergic response: Sweating ([4]; 25 mg/kg oral): 0; Peripheral cholinergic response: Weeping ([4]; 25 mg/kg oral): 0
CC(Oc1ccc2occc2c1)C(N)=NO (stereo not shown) [Compound 29, 2-(5-Benzofuryloxy)-propionamidoxime] |  |  |  |  |  | Average increase of the stereotypies [2, 8]: 5; Average decrease of Ptosis (reserpine-induced ptosis; 100 mg/kg oral): 2.4; Average inhibition of hypothermia (positive °C) ([3]; 100 mg/kg oral): 0.8 °C
CCc1oc2ccccc2c1OC(C)(C)C(N)=NO [Compound 46, 2-(2-Ethyl-3-benzofuryloxy)-2-methyl-propionamidoxime] |  | 100 | 10 | 6.6 |  | 
Cc1oc2cc(OC(C)(C)C(N)=NO)ccc2c1C [Compound 4, 2-(2,3-Dimethyl-6-benzofuryloxy)-2-methyl-propionamidoxime] | 2.1 | 25 | 30 | 0.8 | 0.6 | 
NC(COc1cccc2ccoc12)=NO [Compound 7, 2-(7-Benzofuryloxy)-acetamidoxime] | 1.4 |  | 60 | 4.8 | 0.6 | 
NC(CCOc1ccc2ccccc2c1)=NO [Compound 18, 3-(2-Naphthyloxy)-propionamidoxime] | 0.4 | 100 | 10 |  |  | antiaggressive properties [1]: powerful antiaggressive properties
CC(C)(Oc1cccc2ccoc12)C(N)=NO [Compound 30, 2-(7-Benzofuryloxy)-2-methyl-propionamidoxime] |  |  |  |  |  | Average increase of the stereotypies [2, 8]: 6.5; Average decrease of Ptosis (reserpine-induced ptosis; 100 mg/kg oral): 2.3; Average inhibition of hypothermia (positive °C) ([3]; 100 mg/kg oral): 1 °C; inhibition in vivo at 20 mg/kg [1, 6]: 75%
NC(COc1cccc2sccc12)=NO [Compound 26, 2-(4-Benzothienyloxy)-acetamidoxime] |  | 27 |  |  |  | Mean increase of the stereotypies ([2]; 20 mg/kg oral, 5 mg/kg of amphetamine): 6.8; Average decrease of Ptosis (reserpine-induced ptosis; 20 mg/kg oral): 1.4; Potentiation of the toxicity of yohimbine (toxicity of yohimbine; 20 mg/kg oral, 24 hours): 50%
CCC(Oc1c(C)oc2ccccc12)C(N)=NO (stereo not shown) [Compound 39, 2-(2-Methyl-3-benzofuryloxy)-butyramidoxime] |  |  | 40 |  | 0.3 | 
NC(CCOc1cccc2ccoc12)=NO [Compound 8, 3-(7-Benzofuryloxy)-propionamidoxime] | 1.3 | 70 | 30 | 5.6 | 0.4 | influence on spontaneous motricity (spontaneous motricity): no influence on the spontaneous motricity
CC(Oc1cccc2occc12)C(N)=NO (stereo not shown) [Compound 3, 2-(4-Benzofuryloxy)-propionamidoxime] | 2.1 |  | 40 | 8.6 |  | LD50 at 48 h [5]: 68 mg/kg; Average inhibition of hypothermia (positive °C) ([3]; 20 mg/kg oral): 1 °C; inhibition in vivo at 20 mg/kg [1, 6]: 89%; influence on spontaneous motricity (spontaneous motricity): no influence on the spontaneous motricity
CC(C)(Oc1cccc2c1OCCO2)C(N)=NO [Compound 38, 2-[(1,4-Benzodioxanyl)-5-oxyl]-2-methyl-propionamidoxime] |  |  | 10 |  | 0.5 | 
CCC(Oc1ccc2ccccc2c1)C(N)=NO (stereo not shown) [Compound 37, 2-(2-Naphthyloxy)-butyramidoxime] |  |  |  | 1.8 | 0.5 | 
NC(COc1ccc2occc2c1)=NO [Compound 5, 2-(5-Benzofuryloxy)-acetamidoxime] | 1.9 | 60 | 10 |  | 0.5 | 
CCc1oc2ccccc2c1OCCC(N)=NO [Compound 13, 3-(2-Ethyl-3-benzofuryloxy)-propionamidoxime] | 0.7 |  |  | 2.4 |  | Central response tremor: Normal ([4]; 25 mg/kg oral): 0; Central response tremor: Provoked ([4]; 25 mg/kg oral): 0; Peripheral cholinergic response: Salivat. ([4]; 25 mg/kg oral): 0; Peripheral cholinergic response: Sweating ([4]; 25 mg/kg oral): 0; Peripheral cholinergic response: Weeping ([4]; 25 mg/kg oral): 0
Cc1oc2ccccc2c1OCC(N)=NO [Compound 12, 2-(2-Methyl-3-benzofuryloxy)-acetamidoxime] | 0.7 | 27 |  |  |  | 
Cc1oc2ccccc2c1OC(C)(C)C(N)=NO [Compound 22, 2-(2-Methyl-3-benzofuryloxy)-2-methyl-propionamidoxime] | 0.3 |  |  | 4.2 | 0.5 | Central response tremor: Normal ([4]; 10 mg/kg oral): 0; Central response tremor: Provoked ([4]; 10 mg/kg oral): 0; Peripheral cholinergic response: Salivat. ([4]; 10 mg/kg oral): 0; Peripheral cholinergic response: Sweating ([4]; 10 mg/kg oral): 0; Peripheral cholinergic response: Weeping ([4]; 10 mg/kg oral): 0
